Reference: BindingDB's records for doi:10.1016/s0960-894x(98)00417-x (Affymax Research Institute, 1999)

Tests used:
[1] = target: Mannose-6-phosphate isomerase (Candida albicans) (UniProt P34948); test: Compound was evaluated for the inhibition constant against phosphomannose isomerase enzyme of Candida albicans (CaPMI)
[2] = target: Mannose-6-phosphate isomerase (Candida albicans) (UniProt P34948); test: Compound was tested for percentage inhibition of phosphomannose isomerase enzyme of Candida albicans (CaPMI).

Mannose-6-phosphate isomerase (Candida albicans), sequence (P34948 whole entry, looked up): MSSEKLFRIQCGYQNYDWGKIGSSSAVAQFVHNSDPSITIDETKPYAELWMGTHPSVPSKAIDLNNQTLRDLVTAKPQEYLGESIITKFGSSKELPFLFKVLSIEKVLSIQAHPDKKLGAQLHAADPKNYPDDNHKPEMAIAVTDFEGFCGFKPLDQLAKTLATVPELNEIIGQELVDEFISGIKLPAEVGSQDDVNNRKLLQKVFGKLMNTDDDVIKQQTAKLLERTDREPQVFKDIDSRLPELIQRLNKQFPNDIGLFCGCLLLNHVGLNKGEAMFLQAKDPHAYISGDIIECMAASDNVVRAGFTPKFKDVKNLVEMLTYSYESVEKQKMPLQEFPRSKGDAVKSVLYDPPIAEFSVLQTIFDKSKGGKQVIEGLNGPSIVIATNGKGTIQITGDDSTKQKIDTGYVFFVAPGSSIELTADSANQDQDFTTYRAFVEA

Row | Ki [1] [µM] | IC50 [2] [µM] | SMILES
1 | 4 |  | NC(=O)C1(NC(=O)CCCOc2ccc(Cl)cc2Cl)Cc2ccccc2C1 [2-[4-(2,4-Dichloro-phenoxy)-butyrylamino]-indan-2-carboxylic acid amide]
2 | 4 | 6 | O=C(CCCSc1ccc(Cl)c(Cl)c1)NC1(C(=O)NO)Cc2ccccc2C1 [2-[4-(3,4-Dichloro-phenylsulfanyl)-butyrylamino]-indan-2-carboxylic acid hydroxyamide]
